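Grown in 96-well plates, cells were treated for 48 hours with each compound at five concentrations. Insufficient inhibition: endpoint recorded as highest concentration tested. GI50 is the concentration that inhibits growth by half. The concentration for full growth arrest is given as TGI.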
Tests used:
Experiment in all cases: NCI anticancer screen, dose series, 48 h
COLO 205 colon = tested on: COLO 205 colon
HL-60(TB) leukemia = tested on: HL-60(TB) leukemia
UACC-62 melanoma = tested on: UACC-62 melanoma
UO-31 renal = tested on: UO-31 renal
OVCAR-3 ovarian = tested on: OVCAR-3 ovarian
M14 melanoma = tested on: M14 melanoma
SF-539 CNS = tested on: SF-539 CNS
MDA-MB-468 breast = tested on: MDA-MB-468 breast
PC-3 prostate = tested on: PC-3 prostate
U251 CNS = tested on: U251 CNS
SW-620 colon = tested on: SW-620 colon
RPMI-8226 leukemia = tested on: RPMI-8226 leukemia
K-562 leukemia = tested on: K-562 leukemia
OVCAR-4 ovarian = tested on: OVCAR-4 ovarian
HCT-116 colon = tested on: HCT-116 colon
SR leukemia = tested on: SR leukemia
A549 NSCLC = tested on: A549 NSCLC
DU-145 prostate = tested on: DU-145 prostate
OVCAR-5 ovarian = tested on: OVCAR-5 ovarian
MALME-3M melanoma = tested on: MALME-3M melanoma
HCT-15 colon = tested on: HCT-15 colon
RXF 393 renal = tested on: RXF 393 renal
MDA-MB-231 breast = tested on: MDA-MB-231 breast
MCF7 breast = tested on: MCF7 breast
SK-OV-3 ovarian = tested on: SK-OV-3 ovarian
SK-MEL-2 melanoma = tested on: SK-MEL-2 melanoma
SNB-75 CNS = tested on: SNB-75 CNS
EKVX NSCLC = tested on: EKVX NSCLC
CAKI-1 renal = tested on: CAKI-1 renal
KM12 colon = tested on: KM12 colon
CCRF-CEM leukemia = tested on: CCRF-CEM leukemia
SN12C renal = tested on: SN12C renal
MDA-MB-435 = tested on: MDA-MB-435
A498 renal = tested on: A498 renal
HCC-2998 colon = tested on: HCC-2998 colon
OVCAR-8 ovarian = tested on: OVCAR-8 ovarian
HS 578T breast = tested on: HS 578T breast
SNB-19 CNS = tested on: SNB-19 CNS
HOP-92 NSCLC = tested on: HOP-92 NSCLC
LOX IMVI melanoma = tested on: LOX IMVI melanoma
SF-295 CNS = tested on: SF-295 CNS
UACC-257 melanoma = tested on: UACC-257 melanoma
NCI-H23 lung = tested on: NCI-H23 lung
NCI/ADR-RES ovarian = tested on: NCI/ADR-RES ovarian
NCI-H460 lung = tested on: NCI-H460 lung
786-0 renal = tested on: 786-0 renal
HOP-62 NSCLC = tested on: HOP-62 NSCLC
SK-MEL-28 melanoma = tested on: SK-MEL-28 melanoma
IGROV1 ovarian = tested on: IGROV1 ovarian
NCI-H522 lung = tested on: NCI-H522 lung
ACHN renal = tested on: ACHN renal
NCI-H226 lung = tested on: NCI-H226 lung
SK-MEL-5 melanoma = tested on: SK-MEL-5 melanoma
HT29 colon = tested on: HT29 colon
MOLT-4 leukemia = tested on: MOLT-4 leukemia
SF-268 CNS = tested on: SF-268 CNS
TK-10 renal = tested on: TK-10 renal
T-47D breast = tested on: T-47D breast
BT-549 breast = tested on: BT-549 breast

SMILES: NS(=O)(=O)c1cccc(Nc2nc(SCC(=O)c3ccc(F)cc3)nc3ccccc23)c1
- GI50 (COLO 205 colon): 26.8 µM
- TGI (COLO 205 colon): > 57.7 µM
- GI50 (HL-60(TB) leukemia): 15 µM
- TGI (HL-60(TB) leukemia): 48.9 µM
- GI50 (UACC-62 melanoma): 13.7 µM
- TGI (UACC-62 melanoma): > 57.7 µM
- GI50 (UO-31 renal): 15.5 µM
- TGI (UO-31 renal): > 57.7 µM
- GI50 (OVCAR-3 ovarian): 12.9 µM
- TGI (OVCAR-3 ovarian): > 57.7 µM
- GI50 (M14 melanoma): 27.2 µM
- TGI (M14 melanoma): > 57.7 µM
- GI50 (SF-539 CNS): 20 µM
- TGI (SF-539 CNS): > 57.7 µM
- GI50 (MDA-MB-468 breast): 6.23 µM
- TGI (MDA-MB-468 breast): 42.8 µM
- GI50 (PC-3 prostate): 16.8 µM
- TGI (PC-3 prostate): > 57.7 µM
- GI50 (U251 CNS): 18.6 µM
- TGI (U251 CNS): > 57.7 µM
- GI50 (SW-620 colon): 18.1 µM
- TGI (SW-620 colon): > 57.7 µM
- GI50 (RPMI-8226 leukemia): 12.7 µM
- TGI (RPMI-8226 leukemia): > 57.7 µM
- GI50 (K-562 leukemia): 13 µM
- TGI (K-562 leukemia): > 57.7 µM
- GI50 (OVCAR-4 ovarian): 9.34 µM
- TGI (OVCAR-4 ovarian): > 57.7 µM
- GI50 (HCT-116 colon): 15.3 µM
- TGI (HCT-116 colon): > 57.7 µM
- GI50 (SR leukemia): 15.9 µM
- TGI (SR leukemia): > 57.7 µM
- GI50 (A549 NSCLC): 26.8 µM
- TGI (A549 NSCLC): > 57.7 µM
- GI50 (DU-145 prostate): 19.9 µM
- TGI (DU-145 prostate): > 57.7 µM
- GI50 (OVCAR-5 ovarian): 24.5 µM
- TGI (OVCAR-5 ovarian): > 57.7 µM
- GI50 (MALME-3M melanoma): 27.1 µM
- TGI (MALME-3M melanoma): > 57.7 µM
- GI50 (HCT-15 colon): 11.6 µM
- TGI (HCT-15 colon): > 57.7 µM
- GI50 (RXF 393 renal): 16.5 µM
- TGI (RXF 393 renal): > 57.7 µM
- GI50 (MDA-MB-231 breast): 15.9 µM
- TGI (MDA-MB-231 breast): > 57.7 µM
- GI50 (MCF7 breast): 3.81 µM
- TGI (MCF7 breast): > 57.7 µM
- GI50 (SK-OV-3 ovarian): 30.4 µM
- TGI (SK-OV-3 ovarian): > 57.7 µM
- GI50 (SK-MEL-2 melanoma): 13.5 µM
- TGI (SK-MEL-2 melanoma): > 57.7 µM
- GI50 (SNB-75 CNS): 3.64 µM
- TGI (SNB-75 CNS): > 57.7 µM
- GI50 (EKVX NSCLC): 18.4 µM
- TGI (EKVX NSCLC): > 57.7 µM
- GI50 (CAKI-1 renal): 13.1 µM
- TGI (CAKI-1 renal): > 57.7 µM
- GI50 (KM12 colon): 7.42 µM
- TGI (KM12 colon): > 57.7 µM
- GI50 (CCRF-CEM leukemia): 7.76 µM
- TGI (CCRF-CEM leukemia): > 57.7 µM
- GI50 (SN12C renal): 17.6 µM
- TGI (SN12C renal): > 57.7 µM
- GI50 (MDA-MB-435): 14.2 µM
- TGI (MDA-MB-435): > 57.7 µM
- GI50 (A498 renal): > 57.7 µM
- TGI (A498 renal): > 57.7 µM
- GI50 (HCC-2998 colon): 15.7 µM
- TGI (HCC-2998 colon): > 57.7 µM
- GI50 (OVCAR-8 ovarian): 19.6 µM
- TGI (OVCAR-8 ovarian): > 57.7 µM
- GI50 (HS 578T breast): 12.9 µM
- TGI (HS 578T breast): > 57.7 µM
- GI50 (SNB-19 CNS): 22.3 µM
- TGI (SNB-19 CNS): > 57.7 µM
- GI50 (HOP-92 NSCLC): 16.4 µM
- TGI (HOP-92 NSCLC): > 57.7 µM
- GI50 (LOX IMVI melanoma): 14.3 µM
- TGI (LOX IMVI melanoma): > 57.7 µM
- GI50 (SF-295 CNS): 14.6 µM
- TGI (SF-295 CNS): > 57.7 µM
- GI50 (UACC-257 melanoma): 23.4 µM
- TGI (UACC-257 melanoma): > 57.7 µM
- GI50 (NCI-H23 lung): 16.5 µM
- TGI (NCI-H23 lung): > 57.7 µM
- GI50 (NCI/ADR-RES ovarian): 37.3 µM
- TGI (NCI/ADR-RES ovarian): > 57.7 µM
- GI50 (NCI-H460 lung): 15.1 µM
- TGI (NCI-H460 lung): > 57.7 µM
- GI50 (786-0 renal): 39.1 µM
- TGI (786-0 renal): > 57.7 µM
- GI50 (HOP-62 NSCLC): 22.2 µM
- TGI (HOP-62 NSCLC): > 57.7 µM
- GI50 (SK-MEL-28 melanoma): 20.4 µM
- TGI (SK-MEL-28 melanoma): > 57.7 µM
- GI50 (IGROV1 ovarian): 9.82 µM
- TGI (IGROV1 ovarian): > 57.7 µM
- GI50 (NCI-H522 lung): 11.7 µM
- TGI (NCI-H522 lung): 54.3 µM
- GI50 (ACHN renal): 24.7 µM
- TGI (ACHN renal): > 57.7 µM
- GI50 (NCI-H226 lung): 12.1 µM
- TGI (NCI-H226 lung): > 57.7 µM
- GI50 (SK-MEL-5 melanoma): 12.9 µM
- TGI (SK-MEL-5 melanoma): 54.6 µM
- GI50 (HT29 colon): 20 µM
- TGI (HT29 colon): > 57.7 µM
- GI50 (MOLT-4 leukemia): 7.43 µM
- TGI (MOLT-4 leukemia): 41.3 µM
- GI50 (SF-268 CNS): 21 µM
- TGI (SF-268 CNS): > 57.7 µM
- GI50 (TK-10 renal): > 57.7 µM
- TGI (TK-10 renal): > 57.7 µM
- GI50 (T-47D breast): 3.18 µM
- TGI (T-47D breast): > 57.7 µM
- GI50 (BT-549 breast): 31.3 µM
- TGI (BT-549 breast): > 57.7 µM

Reference: PubChem BioAssay (NCI)
